# According to ChEMBL document CHEMBL1133292, “Some selective reactions of moenomycin A” (Bioorg Med Chem Lett, 2000):
# Assays:
# [1] = Compound was coli; set-up: species or system Escherichia coli
# [2] = Compound was coli; Inactive; set-up: species or system Escherichia coli
SMILES,IC50 [1] [nM l-1],IC50 [2]
C=CC(C)(CC/C=C(\C)CCC=C(C)C)C(O)CO[C@H](COP(=O)(O)O[C@H]1O[C@@H](C(N)=O)[C@@](C)(O)[C@H](OC(N)=O)[C@@H]1O[C@@H]1O[C@@H](CO[C@@H]2O[C@@H](CO)[C@@H](O)[C@H](O)[C@@H]2O)[C@@H](O[C@@H]2O[C@@H](C)[C@@H](O[C@@H]3O[C@@H](C(N)=O)[C@H](O)[C@H](O)[C@@H]3O)[C@H](O)[C@@H]2NC(C)=O)[C@H](O)[C@@H]1NC(C)=O)C(=O)O (stereo not given in full),106,
CCCCCCCCCCCCCCNCCO[C@H](COP(=O)(O)O[C@H]1O[C@@H](C(N)=O)[C@@](C)(O)[C@H](OC(N)=O)[C@@H]1O[C@@H]1O[C@@H](CO[C@@H]2O[C@@H](CO)[C@@H](O)[C@H](O)[C@@H]2O)[C@@H](O[C@@H]2O[C@@H](C)[C@@H](O[C@@H]3O[C@@H](C(N)=O)[C@H](O)[C@H](O)[C@@H]3O)[C@H](O)[C@@H]2NC(C)=O)[C@H](O)[C@@H]1NC(C)=O)C(=O)O,247,
CC(=O)N[C@@H]1[C@H](O[C@H]2[C@H](O)[C@H](NC(C)=O)[C@H](O[C@@H]3[C@@H](OP(=O)(O)OC[C@@H](OCCN(C4CCCCC4)C4CCCCC4)C(=O)O)O[C@@H](C(N)=O)[C@@](C)(O)[C@@H]3OC(N)=O)O[C@H]2CO[C@@H]2O[C@@H](CO)[C@@H](O)[C@H](O)[C@@H]2O)O[C@@H](C)[C@@H](O[C@@H]2O[C@@H](C(N)=O)[C@H](O)[C@H](O)[C@@H]2O)[C@@H]1O,,Not Active

# The remaining lines, values ahead:
IC50 [1] [nM l-1],IC50 [2],SMILES
31,,CCCCCCCCc1ccc(NCCO[C@H](COP(=O)(O)O[C@H]2O[C@@H](C(N)=O)[C@@](C)(O)[C@H](OC(N)=O)[C@@H]2O[C@@H]2O[C@@H](CO[C@@H]3O[C@@H](CO)[C@@H](O)[C@H](O)[C@@H]3O)[C@@H](O[C@@H]3O[C@@H](C)[C@@H](O[C@@H]4O[C@@H](C(N)=O)[C@H](O)[C@H](O)[C@@H]4O)[C@H](O)[C@@H]3NC(C)=O)[C@H](O)[C@@H]2NC(C)=O)C(=O)O)cc1
1.5,,C=C(C/C=C(\C)CCC=C(C)C)CCC(C)(C)/C=C/CC/C(C)=C/CO[C@@H](COP(=O)(O)O[C@H]1O[C@H](C(N)=O)[C@@](C)(O)[C@H](OC(N)=O)[C@H]1O[C@@H]1O[C@H](CO[C@@H]2O[C@H](CO)[C@@H](O)[C@H](O)[C@H]2O)[C@@H](O[C@@H]2O[C@H](C)[C@@H](O[C@@H]3O[C@H](C(=O)NC4=C(O)CCC4=O)[C@H](O)[C@H](O)[C@H]3O)[C@H](O)[C@H]2NC(C)=O)[C@H](O)[C@H]1NC(C)=O)C(=O)O [MOENOMYCIN A]
